# Measurements reported in ChEMBL document CHEMBL4325853, “Design, synthesis and antibacterial evaluation of 2,4-disubstituted-6-thiophenyl-pyrimidines” (Eur J Med Chem, 2019).
# Tests used:
# Bacillus subtilis = test: Antibacterial activity against Bacillus subtilis 168 after 18 hrs by broth microdilution method; type: functional; conditions: subsp. subtilis str. 168, 18 h
# Enterococcus faecalis [1] = test: Antibacterial activity against Enterococcus faecalis ATCC 29212 after 18 hrs by broth microdilution method; type: functional; conditions: ATCC 29212, 18 h
# [2] = tested on: Staphylococcus epidermidis; test: Antibacterial activity against Staphylococcus epidermidis ATCC 12228 after 18 hrs by broth microdilution method; type: functional; conditions: ATCC 12228, 18 h
# Staphylococcus aureus [3] = test: Potency index, ratio of berberine MIC to test compound MIC for Staphylococcus aureus ATCC 29213; type: functional
# Enterococcus faecium = test: Potency index, ratio of berberine MIC to test compound MIC for Enterococcus faecium ATCC 49624; type: functional
# Staphylococcus aureus [4] = test: Antibacterial activity against methicillin-resistant Staphylococcus aureus ATCC BAA41 after 18 hrs by broth microdilution method; type: functional; conditions: ATCC BAA41, 18 h
# Staphylococcus aureus [5] = test: Antibacterial activity against methicillin-resistant Staphylococcus aureus ATCC BAA1720 after 18 hrs by broth microdilution method; type: functional; conditions: ATCC BAA1720, 18 h
# Staphylococcus aureus [6] = test: Antibacterial activity against methicillin-resistant Staphylococcus aureus ATCC 33592 after 18 hrs by broth microdilution method; type: functional; conditions: ATCC 33592, 18 h
# Staphylococcus aureus [7] = test: Antibacterial activity against methicillin-resistant Staphylococcus aureus ATCC 43300 after 18 hrs by broth microdilution method; type: functional; conditions: ATCC 43300, 18 h
# Enterococcus faecalis [8] = test: Antibacterial activity against vancomycin-resistant Enterococcus faecalis ATCC 700221 after 18 hrs by broth microdilution method; type: functional; conditions: ATCC 700221, 18 h
# Staphylococcus aureus [9] = test: Potency index, ratio of methicillin MIC to test compound MIC for methicillin-resistant Staphylococcus aureus ATCC BAA41; type: functional
# Staphylococcus aureus [10] = test: Potency index, ratio of methicillin MIC to test compound MIC for methicillin-resistant Staphylococcus aureus ATCC BAA1720; type: functional
# Staphylococcus aureus [11] = test: Potency index, ratio of methicillin MIC to test compound MIC for methicillin-resistant Staphylococcus aureus ATCC 33591; type: functional
# Staphylococcus aureus [12] = test: Antibacterial activity against methicillin-resistant Staphylococcus aureus isolate 3170 after 18 hrs by broth microdilution method; type: functional; conditions: isolate 3170, 18 h
# Staphylococcus aureus [13] = test: Antibacterial activity against methicillin-resistant Staphylococcus aureus isolate 3096 after 18 hrs by broth microdilution method; type: functional; conditions: isolate 3096, 18 h
# Staphylococcus aureus [14] = test: Antibacterial activity against methicillin-resistant Staphylococcus aureus isolate 2491 after 18 hrs by broth microdilution method; type: functional; conditions: isolate 2491, 18 h
# Staphylococcus aureus [15] = test: Antibacterial activity against methicillin-resistant Staphylococcus aureus isolate 7863 after 18 hrs by broth microdilution method; type: functional; conditions: isolate 7863, 18 h
# Staphylococcus aureus [16] = test: Antibacterial activity against methicillin-resistant Staphylococcus aureus isolate 7947 after 18 hrs by broth microdilution method; type: functional; conditions: isolate 7947, 18 h
# Staphylococcus aureus [17] = test: Antibacterial activity against methicillin-resistant Staphylococcus aureus isolate 1610 after 18 hrs by broth microdilution method; type: functional; conditions: isolate 1610, 18 h
# Staphylococcus aureus [18] = test: Antibacterial activity against methicillin-resistant Staphylococcus aureus isolate 6334 after 18 hrs by broth microdilution method; type: functional; conditions: isolate 6334, 18 h
# Staphylococcus aureus [19] = test: Antibacterial activity against methicillin-resistant Staphylococcus aureus isolate 7972 after 18 hrs by broth microdilution method; type: functional; conditions: isolate 7972, 18 h
# Staphylococcus aureus [20] = test: Antibacterial activity against methicillin-resistant Staphylococcus aureus isolate 1220 after 18 hrs by broth microdilution method; type: functional; conditions: isolate 1220, 18 h
# Staphylococcus aureus [21] = test: Antibacterial activity against methicillin-resistant Staphylococcus aureus isolate 6515 after 18 hrs by broth microdilution method; type: functional; conditions: isolate 6515, 18 h
# Staphylococcus aureus [22] = test: Antibacterial activity against methicillin-resistant Staphylococcus aureus isolate 1651 after 18 hrs by broth microdilution method; type: functional; conditions: isolate 1651, 18 h
# Staphylococcus aureus [23] = test: Antibacterial activity against methicillin-resistant Staphylococcus aureus isolate 8179 after 18 hrs by broth microdilution method; type: functional; conditions: isolate 8179, 18 h
# Staphylococcus aureus [24] = test: Antibacterial activity against methicillin-resistant Staphylococcus aureus isolate 8071 after 18 hrs by broth microdilution method; type: functional; conditions: isolate 8071, 18 h
# Staphylococcus aureus [25] = test: Antibacterial activity against methicillin-resistant Staphylococcus aureus isolate 4955 after 18 hrs by broth microdilution method; type: functional; conditions: isolate 4955, 18 h
# Staphylococcus aureus [26] = test: Antibacterial activity against methicillin-resistant Staphylococcus aureus isolate 5395 after 18 hrs by broth microdilution method; type: functional; conditions: isolate 5395, 18 h
# Staphylococcus aureus [27] = test: Antibacterial activity against methicillin-resistant Staphylococcus aureus isolate 7844 after 18 hrs by broth microdilution method; type: functional; conditions: isolate 7844, 18 h
# Staphylococcus aureus [28] = test: Antibacterial activity against methicillin-resistant Staphylococcus aureus isolate 7916 after 18 hrs by broth microdilution method; type: functional; conditions: isolate 7916, 18 h
# Staphylococcus aureus [29] = test: Antibacterial activity against methicillin-resistant Staphylococcus aureus isolate 7682 after 18 hrs by broth microdilution method; type: functional; conditions: isolate 7682, 18 h
# Staphylococcus aureus [30] = test: Antibacterial activity against methicillin-resistant Staphylococcus aureus isolate 7536 after 18 hrs by broth microdilution method; type: functional; conditions: isolate 7536, 18 h
# Staphylococcus aureus [31] = test: Antibacterial activity against methicillin-resistant Staphylococcus aureus isolate 1708 after 18 hrs by broth microdilution method; type: functional; conditions: isolate 1708, 18 h
# Staphylococcus aureus [32] = test: Antibacterial activity against methicillin-resistant Staphylococcus aureus isolate 5056 after 18 hrs by broth microdilution method; type: functional; conditions: isolate 5056, 18 h
# Staphylococcus aureus [33] = test: Antibacterial activity against methicillin-resistant Staphylococcus aureus isolate 7434 after 18 hrs by broth microdilution method; type: functional; conditions: isolate 7434, 18 h
# Staphylococcus aureus [34] = test: Bactericidal activity against methicillin-resistant Staphylococcus aureus ATCC 43300 after 18 hrs by broth microdilution method; type: functional; conditions: ATCC 43300, 18 h
# Enterococcus faecalis [35] = test: Bactericidal activity against vancomycin-resistant Enterococcus faecalis ATCC 700221 after 18 hrs by broth microdilution method; type: functional; conditions: ATCC 700221, 18 h
# Staphylococcus aureus [36] = test: Ratio of MBC to MIC for methicillin-resistant Staphylococcus aureus ATCC 43300; type: functional
# [37] = molecular target: T1, Cell division protein FtsZ (Staphylococcus aureus) (UniProt P0A031); test: Inhibition of recombinant Staphylococcus aureus FtsZ GTPase activity assessed as reduction in inorganic phosphate formation after 30 mins by colorimetric method
# T1 sequence (whole entry): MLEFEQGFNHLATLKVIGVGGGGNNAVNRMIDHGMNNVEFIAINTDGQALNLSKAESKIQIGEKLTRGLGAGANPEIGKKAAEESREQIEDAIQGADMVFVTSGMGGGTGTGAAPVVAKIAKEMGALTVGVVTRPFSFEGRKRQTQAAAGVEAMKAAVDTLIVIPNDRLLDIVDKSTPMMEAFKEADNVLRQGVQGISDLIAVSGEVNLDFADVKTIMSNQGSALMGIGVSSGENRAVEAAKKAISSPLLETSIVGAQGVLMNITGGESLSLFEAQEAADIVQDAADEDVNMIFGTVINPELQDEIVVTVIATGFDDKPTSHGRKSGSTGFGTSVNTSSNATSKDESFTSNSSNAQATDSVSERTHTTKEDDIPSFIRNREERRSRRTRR
# [38] = Selectivity index, ratio of HC50 for human erythrocytes to MIC for methicillin-resistant Staphylococcus aureus ATCC 33591; type: toxicity; conditions: read-out: Selectivity Index
# [39] = Selectivity index, ratio of HC50 for human erythrocytes to MIC for methicillin-resistant Staphylococcus aureus ATCC 43300; type: toxicity; conditions: read-out: Selectivity Index
structure (smiles),measurement,setting,value
CC(C)c1ccc(CN2CCCN(CCc3cc(-c4cccs4)nc(-c4ccncc4)n3)CC2)cc1,MIC90,Bacillus subtilis,2 µg/mL
same,MIC90,Enterococcus faecalis [1],2 µg/mL
same,MIC90,[2],2 µg/mL
same,Ratio,Staphylococcus aureus [3],50 - 100
same,Ratio,Enterococcus faecium,50 - 100
same,MIC90,Staphylococcus aureus [4],2 µg/mL
same,MIC90,Staphylococcus aureus [5],2 µg/mL
same,MIC90,Staphylococcus aureus [6],2 µg/mL
same,MIC90,Staphylococcus aureus [7],2 µg/mL
same,MIC90,Enterococcus faecalis [8],2 µg/mL
same,Ratio,Staphylococcus aureus [9],>100
same,Ratio,Staphylococcus aureus [10],>100
same,Ratio,Staphylococcus aureus [11],>100
same,MIC90,Staphylococcus aureus [12],2 µg/mL
same,MIC90,Staphylococcus aureus [13],2 µg/mL
same,MIC90,Staphylococcus aureus [14],4 µg/mL
same,MIC90,Staphylococcus aureus [15],2 µg/mL
same,MIC90,Staphylococcus aureus [16],2 µg/mL
same,MIC90,Staphylococcus aureus [17],4 µg/mL
same,MIC90,Staphylococcus aureus [18],2 µg/mL
same,MIC90,Staphylococcus aureus [19],2 µg/mL
same,MIC90,Staphylococcus aureus [20],2 µg/mL
same,MIC90,Staphylococcus aureus [21],2 µg/mL
same,MIC90,Staphylococcus aureus [22],2 µg/mL
same,MIC90,Staphylococcus aureus [23],2 µg/mL
same,MIC90,Staphylococcus aureus [24],2 µg/mL
same,MIC90,Staphylococcus aureus [25],2 µg/mL
same,MIC90,Staphylococcus aureus [26],2 µg/mL
same,MIC90,Staphylococcus aureus [27],2 µg/mL
same,MIC90,Staphylococcus aureus [28],2 µg/mL
same,MIC90,Staphylococcus aureus [29],4 µg/mL
same,MIC90,Staphylococcus aureus [30],2 µg/mL
same,MIC90,Staphylococcus aureus [31],2 µg/mL
same,MIC90,Staphylococcus aureus [32],2 µg/mL
same,MIC90,Staphylococcus aureus [33],2 µg/mL
same,MBC,Staphylococcus aureus [34],4 µg/mL
same,MBC,Enterococcus faecalis [35],4 µg/mL
same,Ratio,Staphylococcus aureus [36],2
same,inhibition,[37],Dose-dependent effect
same,selectivity ratio,[38],> 32
same,selectivity ratio,[39],> 32
CC(C)(C)c1ccc(CN2CCCN(CCc3cc(-c4cccs4)nc(-c4ccncc4)n3)CC2)cc1,MIC90,Bacillus subtilis,2 µg/mL
same,MIC90,Enterococcus faecalis [1],2 µg/mL
same,MIC90,[2],2 µg/mL
same,Ratio,Staphylococcus aureus [3],50 - 100
same,Ratio,Enterococcus faecium,50 - 100
same,MIC90,Staphylococcus aureus [4],2 µg/mL
same,MIC90,Staphylococcus aureus [5],2 µg/mL
same,MIC90,Staphylococcus aureus [6],2 µg/mL
same,MIC90,Staphylococcus aureus [7],2 µg/mL
same,MIC90,Enterococcus faecalis [8],4 µg/mL
same,Ratio,Staphylococcus aureus [9],>100
same,Ratio,Staphylococcus aureus [10],>100
same,Ratio,Staphylococcus aureus [11],>100
same,MIC90,Staphylococcus aureus [12],2 µg/mL
same,MIC90,Staphylococcus aureus [13],2 µg/mL
same,MIC90,Staphylococcus aureus [14],4 µg/mL
same,MIC90,Staphylococcus aureus [15],2 µg/mL
same,MIC90,Staphylococcus aureus [16],2 µg/mL
same,MIC90,Staphylococcus aureus [17],4 µg/mL
same,MIC90,Staphylococcus aureus [18],2 µg/mL
same,MIC90,Staphylococcus aureus [19],2 µg/mL
same,MIC90,Staphylococcus aureus [20],2 µg/mL
same,MIC90,Staphylococcus aureus [21],4 µg/mL
same,MIC90,Staphylococcus aureus [22],2 µg/mL
same,MIC90,Staphylococcus aureus [23],2 µg/mL
same,MIC90,Staphylococcus aureus [24],2 µg/mL
same,MIC90,Staphylococcus aureus [25],2 µg/mL
same,MIC90,Staphylococcus aureus [26],2 µg/mL
same,MIC90,Staphylococcus aureus [27],2 µg/mL
same,MIC90,Staphylococcus aureus [28],2 µg/mL
same,MIC90,Staphylococcus aureus [29],4 µg/mL
same,MIC90,Staphylococcus aureus [30],2 µg/mL
same,MIC90,Staphylococcus aureus [31],4 µg/mL
same,MIC90,Staphylococcus aureus [32],2 µg/mL
same,MIC90,Staphylococcus aureus [33],2 µg/mL
same,MBC,Staphylococcus aureus [34],4 µg/mL
same,MBC,Enterococcus faecalis [35],4 µg/mL
same,Ratio,Staphylococcus aureus [36],2
same,inhibition,[37],Dose-dependent effect
same,selectivity ratio,[38],> 32
same,selectivity ratio,[39],> 32
CN[C@H](CC(C)C)C(=O)N[C@H]1C(=O)N[C@@H](CC(N)=O)C(=O)N[C@H]2C(=O)N[C@H]3C(=O)N[C@H](C(=O)N[C@H](C(=O)O)c4cc(O)cc(O)c4-c4cc3ccc4O)[C@H](O)c3ccc(c(Cl)c3)Oc3cc2cc(c3O[C@@H]2O[C@H](CO)[C@@H](O)[C@H](O)[C@H]2O[C@H]2C[C@](C)(N)[C@H](O)[C@H](C)O2)Oc2ccc(cc2Cl)[C@H]1O [VANCOMYCIN],MIC90,Bacillus subtilis,1 µg/mL
same,MIC90,Enterococcus faecalis [1],> 64 µg/mL
same,MIC90,[2],0.5 µg/mL
same,MIC90,Staphylococcus aureus [4],2 µg/mL
same,MIC90,Staphylococcus aureus [5],2 µg/mL
same,MIC90,Staphylococcus aureus [6],2 µg/mL
same,MIC90,Staphylococcus aureus [7],2 µg/mL
same,MIC90,Enterococcus faecalis [8],> 64 µg/mL
same,MIC90,Staphylococcus aureus [12],2 µg/mL
same,MIC90,Staphylococcus aureus [13],1 µg/mL
same,MIC90,Staphylococcus aureus [14],2 µg/mL
same,MIC90,Staphylococcus aureus [15],1 µg/mL
same,MIC90,Staphylococcus aureus [16],1 µg/mL
same,MIC90,Staphylococcus aureus [17],1 µg/mL
same,MIC90,Staphylococcus aureus [18],1 µg/mL
same,MIC90,Staphylococcus aureus [19],1 µg/mL
same,MIC90,Staphylococcus aureus [20],0.5 µg/mL
same,MIC90,Staphylococcus aureus [21],1 µg/mL
same,MIC90,Staphylococcus aureus [22],2 µg/mL
same,MIC90,Staphylococcus aureus [23],1 µg/mL
same,MIC90,Staphylococcus aureus [24],1 µg/mL
same,MIC90,Staphylococcus aureus [25],1 µg/mL
same,MIC90,Staphylococcus aureus [26],1 µg/mL
same,MIC90,Staphylococcus aureus [27],1 µg/mL
same,MIC90,Staphylococcus aureus [28],1 µg/mL
same,MIC90,Staphylococcus aureus [29],1 µg/mL
same,MIC90,Staphylococcus aureus [30],1 µg/mL
same,MIC90,Staphylococcus aureus [31],1 µg/mL
same,MIC90,Staphylococcus aureus [32],2 µg/mL
same,MIC90,Staphylococcus aureus [33],1 µg/mL
